The term EC50 denotes the concentration at which the effect is half-maximal.

We go through 2 molecules from paper PMC9317966, “Structure-function analysis of the AMPK activator SC4 and identification of a potent pan AMPK activator” (Biochemical Journal, 2022).

The target of assay [1] is γ1AMPK complexes. The assay is described as follows: Radiolabel kinase assay, immobilised GST-tagged γ1AMPK (stated across γ1 complexes). Format: biochemical, human. An excerpt: (§1) We directly compared in vitro potencies of pan activators by performing radiolabel kinase assays with γ1AMPK complexes. Initially, we used GST-tagged γ1AMPK expressed in HEK293T/17 cells and immobilised on glutathione-Sepharose (Figure 2 and Table 2). […] These assays used AMPK purified from Sf9 insect cells or E. coli that was pre-treated with CaMKK2. […] However, relative to immobilised GST-α2β1γ1 from HEK293T/17 cells, His-tagged and myristoylated α2β1γ1 AMPK (expressed in E. coli, CaMKK2-treated and assayed in solution) was at least 10-fold more sensitive to activation by both MK-8722 and MSG011 (Supplementary Figure S3B), indicating the GST-affinity tag or CaMKK2 treatment may exert some influence on sensitivity to these activators.
Adherent HEK293T/17 cells at ∼50% confluency were triply transfected with full-length AMPK α1 or α2 (NH2-terminal GST fusion, pDEST27 vector), β1 or β2 (COOH-terminal FLAG fusion, pcDNA3.1 vector), and γ1, γ2 or γ3 (NH2-terminal HA fusion, pMT2 vector) in the presence of FuGENE HD transfection reagent (Promega) as per the manufacturers protocol. Cells were harvested 48 hours post-transfection by first gently washing in ice cold phosphate buffered saline (PBS; Sigma–Aldrich), then scraping in ice cold lysis buffer (50 mM TRIS pH 7.5, 150 mM NaCl, 10% (v/v) glycerol, 50 mM NaF, 5 mM sodium pyrophosphate, 1% (v/v) Triton X-100, cOmplete protease inhibitor cocktail). Lysates were clarified by centrifugation (16 000g, 3 min, 4°C), flash frozen in liquid N2 and stored at −80°C until analysis. For radioactive kinase assays, AMPK was immobilised on glutathione Sepharose 4B resin (GE Healthcare) by incubation with lysates for 1.5 h at 4°C. Following centrifugation (1000g, 3 min, 4°C), the resin was washed twice in purification buffer (50 mM HEPES pH 7.4, 150 mM NaCl, 10% (v/v) glycerol, 0.02% (v/v) Tween-20), once in 50 mM HEPES pH 7.4 with 0.02% (v/v) Tween-20, then resuspended to a 50% slurry with 50 mM HEPES pH 7.4 and 10 µl added to the activity assays. For in solution kinase assays, α1β1γ1 AMPK was eluted from glutathione-Sepharose by incubating with purification buffer supplemented with 40 mM reduced glutathione (Sigma–Aldrich).
AMPK activity was determined by phosphorylation of the SAMS peptide (Purar Chemicals, sequence: NH2-HMRSAMSGLHLVKRR-COOH) in a 25 µl reaction volume containing 100 µM SAMS peptide, 5 mM MgCl2, 200 µM ATP, [γ-^32P]-ATP (PerkinElmer) and assay buffer (50 mM HEPES pH 7.4, 1 mM DTT and 0.02% (v/v) Tween-20) and purified AMPK. […] Ultima Gold liquid scintillation fluid (5 ml; PerkinElmer) was added to vials containing dried phosphocellulose papers, and the level of ^32P-transfer to the SAMS peptide was determined using a Tri-Carb 2900TR liquid scintillation counter (PerkinElmer).

For assay [2], the target named is T1, E. coli-expressed His-α2β1γ1 AMPK (Homo sapiens, UniProt P54646+Q9Y478).
T1 construct: Recombinant full-length AMPK 6xHisα2β1γ1 was expressed in E. coli Rosetta 2 (DE3); made in house; host or cells: E. coli Rosetta 2 (DE3)
The experiment in a line: In solution SAMS kinase assay, E. coli-expressed myristoylated His-α2β1γ1, CaMKK2-treated. Format: biochemical. The conditions noted are these: for EC50 / Max. fold activation: E. coli-expressed α2β1γ1, CaMKK2-treated; for sensitivity to activation relative to immobilised GST-α2β1γ1 from HEK293T/17 cells: His-tagged myristoylated α2β1γ1, E. coli, CaMKK2-treated.
Description: as §1
Recombinant full-length AMPK 6xHisα2β1γ1 was expressed in E. coli Rosetta 2 (DE3) (Merck Millipore) after double-transformation of pET-Duet-1 (α and γ subunits) and pCOLA (β subunit) vectors. Expression cultures were grown at 37°C in Luria-Bertani broth supplemented with 100 µg ml^−1 ampicillin and 50 µg ml^−1 kanamycin. Cultures shaking at 120 rpm in PYREX 2800 ml Fernbach-style culture flasks with baffles (Corning) were grown to an optical density (OD600) of 3.0 before induction with 500 µM isopropyl-β-D-1-thiogalactopyranoside (IPTG; Gold Biotechnology) and incubation overnight at 16°C. Cell pellets were resuspended in lysis buffer (50 mM TRIS pH 7.6, 500 mM NaCl, 5% (v/v) glycerol, 50 mM imidazole, 2 mM β-mercaptoethanol, 0.01 mM leupeptin, 0.1 mM AEBSF, 0.5 mM benzamidine hydrochloride), lysed using a precooled EmulsiFlex-C5 homogeniser (Avestin) and clarified via centrifugation (16 000g, 30 min, 4°C). Supernatant was passed through a HisTrap HP 5 ml Ni^2+ column (GE Healthcare) at 1 ml min^−1. The column was washed with 10 column volumes of chilled Ni^2+ column buffer (50 mM TRIS pH 7.6, 500 mM NaCl, 10% (v/v) glycerol, 50 mM imidazole, 2 mM β-mercaptoethanol) before elution with Ni^2+ column buffer supplemented with 400 mM imidazole. Proteinaceous fractions were then separated on a HiLoad 16/600 Superdex 200 gel filtration column (GE Healthcare) pre-equilibrated with size exclusion column buffer (SEC buffer; 50 mM TRIS pH 8.0, 150 mM NaCl, 2 mM tris(2-carboxyethyl) phosphine (TCEP)). AMPK containing fractions were pooled and concentrated to ∼2 mg ml^−1 using Amicon centrifugal filter units (Merck Millipore) prior to CaMKK2 treatment.
To phosphorylate AMPK, purified protein was incubated in the presence of 0.5 mM ATP, 0.5 mM AMP, 2.5 mM MgCl2 (Merck Millipore), SEC buffer and purified CaMKK2 (1 : 2500 mass ratio of CaMKK2:AMPK; for 1 h at 22°C with gentle rolling. The phosphorylation reaction was terminated by directly loading onto a HiLoad 16/600 Superdex 200 gel filtration column pre-equilibrated with SEC buffer. Protein was either assayed or concentrated to ∼10 mg ml^−1 using Amicon centrifugal filter units and flash frozen in L-N2 and stored at −80°C. The purified AMPK was analysed by ToF-MS and sample purity confirmed by SDS–PAGE.
AMPK activity was determined by phosphorylation of the SAMS peptide (Purar Chemicals, sequence: NH2-HMRSAMSGLHLVKRR-COOH) in a 25 µl reaction volume containing 100 µM SAMS peptide, 5 mM MgCl2, 200 µM ATP, [γ-^32P]-ATP (PerkinElmer) and assay buffer (50 mM HEPES pH 7.4, 1 mM DTT and 0.02% (v/v) Tween-20) and purified AMPK. Phosphotransferase activity was conducted at 30°C for 10 min and reactions were quenched by spotting 15 µl onto phosphocellulose ion-exchange chromatography paper (made in-house), followed by repeated washes in 1% H3PO4 (Merck Millipore). Ultima Gold liquid scintillation fluid (5 ml; PerkinElmer) was added to vials containing dried phosphocellulose papers, and the level of ^32P-transfer to the SAMS peptide was determined using a Tri-Carb 2900TR liquid scintillation counter (PerkinElmer).
⍺1β1γ1 – in solution E. coli-expressed ⍺2β1γ1
log [compound] (M) log [compound] (M)
Compound EC (nM) Max. fold Compound EC50 (nM) Max. fold […]

In assay [3] the target is T2, human GST-AMPK α2β1γ1 (Homo sapiens, UniProt P54646+Q9Y478).
T2 construct: triply transfected with full-length AMPK α1 or α2 (NH2-terminal GST fusion, pDEST27 vector); full-length AMPK α1 or α2 (NH2-terminal GST fusion, pDEST27 vector), β1 or β2 (COOH-terminal FLAG fusion, pcDNA3.1 vector); FLAG (C); made in house; host or cells: HEK293T/17 cells, transient triple transfection
The assay is described as follows: Radiolabel SAMS kinase assay, GST-AMPK from HEK293T/17 cells immobilised on glutathione-Sepharose. Type of assay: biochemical. The conditions noted are these: for Max. fold activation: immobilised α2β1γ1; for EC50: immobilised α2β1γ1, 0–30 µM activator.

T1 sequence (P54646 whole entry): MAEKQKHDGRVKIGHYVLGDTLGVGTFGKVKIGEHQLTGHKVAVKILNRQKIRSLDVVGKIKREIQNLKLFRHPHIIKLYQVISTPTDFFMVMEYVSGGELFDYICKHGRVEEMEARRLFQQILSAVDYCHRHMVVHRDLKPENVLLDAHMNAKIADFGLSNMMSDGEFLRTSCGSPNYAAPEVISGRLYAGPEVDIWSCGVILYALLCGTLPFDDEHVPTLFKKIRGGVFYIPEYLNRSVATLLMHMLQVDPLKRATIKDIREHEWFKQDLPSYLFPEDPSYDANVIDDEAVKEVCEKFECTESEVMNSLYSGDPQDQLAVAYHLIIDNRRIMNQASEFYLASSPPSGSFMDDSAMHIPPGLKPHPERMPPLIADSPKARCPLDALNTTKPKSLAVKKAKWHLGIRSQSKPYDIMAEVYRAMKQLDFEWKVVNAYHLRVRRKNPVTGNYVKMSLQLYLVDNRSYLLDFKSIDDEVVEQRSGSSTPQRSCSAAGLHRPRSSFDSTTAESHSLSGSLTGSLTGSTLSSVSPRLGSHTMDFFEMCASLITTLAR
T1 sequence (Q9Y478 whole entry): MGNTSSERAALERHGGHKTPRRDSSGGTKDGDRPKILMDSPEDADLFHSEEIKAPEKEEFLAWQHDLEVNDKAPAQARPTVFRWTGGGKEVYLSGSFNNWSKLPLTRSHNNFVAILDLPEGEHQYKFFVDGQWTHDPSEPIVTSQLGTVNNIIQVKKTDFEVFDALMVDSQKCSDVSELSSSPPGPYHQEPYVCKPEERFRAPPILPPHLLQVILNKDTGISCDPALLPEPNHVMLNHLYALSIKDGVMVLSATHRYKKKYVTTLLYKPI
T1 sequence (P54619 whole entry partner): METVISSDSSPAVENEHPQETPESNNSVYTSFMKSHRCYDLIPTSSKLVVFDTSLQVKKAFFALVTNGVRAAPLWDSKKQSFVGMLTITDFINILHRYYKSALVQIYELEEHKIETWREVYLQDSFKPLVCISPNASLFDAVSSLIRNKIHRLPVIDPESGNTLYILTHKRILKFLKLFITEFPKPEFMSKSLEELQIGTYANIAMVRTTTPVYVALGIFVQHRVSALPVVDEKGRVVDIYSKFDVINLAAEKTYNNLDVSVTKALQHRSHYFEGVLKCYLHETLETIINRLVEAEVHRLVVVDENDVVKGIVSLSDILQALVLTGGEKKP
T2 sequence (P54646 whole entry, the tested form may be a part): as the sequence (P54646 whole entry) above
T2 sequence (Q9Y478 whole entry, the tested form may be a part): as the sequence (Q9Y478 whole entry) above
T2 sequence (P54619 whole entry partner, the tested form may be a part): as the sequence (P54619 whole entry partner) above

For the molecule `O[C@@H]1CO[C@H]2[C@@H]1OC[C@H]2Oc1nc2nc(-c3ccc(-c4ccccc4)cc3)c(Cl)cc2[nH]1` [MK-8722, reference compound], the “EC50 fold higher than previously determined by high-throughput fluorescence-based assays in solution” value in assay [1] (compared with refs 17, 18) is recorded as 100–1000 fold. Also, the EC50 in assay [1] (immobilised GST-γ1AMPK, read-out: EC50 values for γ1AMPK activation) lay in the range of 1200 to 5600 nM. Besides, in assay [2], a half-maximal effect (EC50) was put at 334 nM, the Max. fold activation is recorded as 3.6 fold and the “sensitivity to activation relative to immobilised GST-α2β1γ1 from HEK293T/17 cells” value was “at least 10 fold”. In assay [3], this molecule came in with a Max. fold activation of 7.8 fold and an EC50 of 3250 nM.
With `CC(=O)NC1CC=C(c2ccc(-c3nc4nc(Oc5ccc(C)c(C(=O)O)c5)[nH]c4cc3Cl)cc2)CC1` (stereo not drawn) [MSG011, 5-((5-(4′-Acetamido-2′,3′,4′,5′-tetrahydro-[1,1′-biphenyl]-4-yl)-6-chloro-1H-imidazo[4,5-b]pyridin-2-yl)oxy)-2-methylbenzoic acid], in assay [2], the EC50 stood at 32.6 nM, the Max. fold activation is on record as 5.5 fold and the “sensitivity to activation relative to immobilised GST-α2β1γ1 from HEK293T/17 cells” value is reported as “at least 10 fold”. In assay [3], this molecule returned a Max. fold activation of 7.5 fold and an EC50 of 553 nM.
